Assays:
Assay type in all cases: in vivo
[1] = tested on: crabgrass (Digitaria sanguinalis); test: Test A pre/postemergence
How it was run: (§1)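 Seeds in loam–sand blend received preemergence directed soil spray and, concurrently, postemergence application (plants 2–10 cm, 1–2-leaf stage) of compound in non-phytotoxic solvent with surfactant. After about ten days in greenhouse, injury rated visually versus untreated controls, 0 (no effect) to 100 (complete control).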

[2] = tested on: barnyardgrass (Echinochloa crus-galli); test: Test A pre/postemergence
How it was run: as §1

[3] = tested on: velvetleaf (Abutilon theophrasti); test: Test A pre/postemergence
How it was run: as §1

[4] = tested on: redroot pigweed (Amaranthus retroflexus); test: Test A pre/postemergence
How it was run: as §1

[5] = tested on: giant foxtail (Setaria faberi); test: Test A pre/postemergence
How it was run: as §1

[6] = tested on: morningglory (Ipomoea spp.); test: Test A pre/postemergence
How it was run: as §1

[7] = tested on: barnyardgrass (Echinochloa crus-galli); test: Test E flooded paddy water application; settings: Flood, 21 days, scale 0 to 100 (0 no effect, 100 complete control)
How it was run: (§2)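 Weeds sown in sterilized Tama silt loam (2.6% organic matter), greenhouse 29.5/26.7° C, 16-h photoperiod; at 2.0–2.5-leaf stage pots flooded to 3 cm and compound added to paddy water. Visual rating vs untreated controls after 21 days, 0 (no effect) to 100 (complete control).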

[8] = tested on: water seeded rice seedlings (Oryza sativa cv. ‘Japonica-M202’); test: Test E flooded paddy water application; settings: Flood, 21 days, scale 0 to 100 (0 no effect, 100 complete control)
How it was run: as §2

[9] = tested on: junglerice (Echinochloa colona); test: Test E flooded paddy water application; settings: Flood, 21 days, scale 0 to 100 (0 no effect, 100 complete control)
How it was run: as §2

[10] = tested on: rice flatsedge (Cyperus iria); test: Test E flooded paddy water application; settings: Flood, 21 days, scale 0 to 100 (0 no effect, 100 complete control)
How it was run: as §2

[11] = tested on: purple redstem (Ammannia coccinea); test: Test E flooded paddy water application; settings: Flood, 21 days, scale 0 to 100 (0 no effect, 100 complete control)
How it was run: as §2

[12] = tested on: ducksalad (Heteranthera limosa); test: Test E flooded paddy water application; settings: Flood, 21 days, scale 0 to 100 (0 no effect, 100 complete control)
How it was run: as §2

[13] = tested on: bearded (brdd.) sprangletop (Leptochloa fusca ssp. fascicularis); test: Test E flooded paddy water application; settings: Flood, 21 days, scale 0 to 100 (0 no effect, 100 complete control)
How it was run: as §2

[14] = tested on: transplanted rice seedlings (Oryza sativa cv. ‘Japonica-M202’); test: Test E flooded paddy water application; settings: Flood, 21 days, scale 0 to 100 (0 no effect, 100 complete control)
How it was run: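 Greenhouse pots of Tama silt loam with weeds and rice at 2.0–2.5-leaf stage, flooded to 3 cm; compounds applied directly into paddy water, depth maintained. Visual rating versus untreated controls after 21 days, 0 (no effect) to 100 (complete control); 29.5/26.7 °C, 16-h photoperiod.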

[15] = tested on: late watergrass (Echinochloa oryzicola); test: Test E flooded paddy water application; settings: Flood, 21 days, scale 0 to 100 (0 no effect, 100 complete control)
How it was run: as §2

[16] = tested on: early watergrass (Echinochloa oryzoides); test: Test E flooded paddy water application; settings: Flood, 21 days, scale 0 to 100 (0 no effect, 100 complete control)
How it was run: as §2

[17] = tested on: smallflower umbrella sedge (Cyperus difformis); test: Test E flooded paddy water application; settings: Flood, 21 days, scale 0 to 100 (0 no effect, 100 complete control)
How it was run: as §2

[18] = Postemergence, 125 g ai/ha, 0 to 100 scale (0 no effect, 100 complete control)
[19] = Postemergence, 500 g ai/ha, 0 to 100 scale (0 no effect, 100 complete control)
[20] = Preemergence, 125 g ai/ha, 0 to 100 scale where 0 is no effect and 100 is complete control, approximately ten days
[21] = Preemergence, 500 g ai/ha, 0 to 100 scale where 0 is no effect and 100 is complete control, approximately ten days

CCOC(=O)c1nc(-c2ccc(C)cc2)nc(N)c1Cl [Compound 62]
Plant response rating, Crabgrass [1, 18]: 0 | Plant response rating, Crabgrass [1, 19]: 35 | Plant response rating, Crabgrass [1, 20]: 0 | Plant response rating, Crabgrass [1, 21]: 60 | Plant response rating, Barnyardgrass [2, 18]: 15 | Plant response rating, Barnyardgrass [2, 19]: 80 | Plant response rating, Barnyardgrass [2, 20]: 0 | Plant response rating, Barnyardgrass [2, 21]: 45 | Plant response rating, Velvetleaf [3, 18]: 90 | Plant response rating, Velvetleaf [3, 19]: 95 | Plant response rating, Velvetleaf [3, 20]: 0 | Plant response rating, Velvetleaf [3, 21]: 75 | Plant response rating, Pigweed [4, 18]: 30 | Plant response rating, Pigweed [4, 19]: 60 | Plant response rating, Pigweed [4, 20]: 0 | Plant response rating, Pigweed [4, 21]: 75 | Plant response rating, Foxtail, Giant [5, 18]: 0 | Plant response rating, Foxtail, Giant [5, 19]: 80 | Plant response rating, Foxtail, Giant [5, 20]: 0 | Plant response rating, Foxtail, Giant [5, 21]: 0 | Plant response rating, Morningglory [6, 18]: 10 | Plant response rating, Morningglory [6, 19]: 35 | Plant response rating, Morningglory [6, 20]: 0 | Plant response rating, Morningglory [6, 21]: 35 | Barnyardgrass plant response rating ([7]; 32 g ai/ha): 0 | Barnyardgrass plant response rating ([7]; 64 g ai/ha): 0 | Barnyardgrass plant response rating ([7]; 125 g ai/ha): 0 | Barnyardgrass plant response rating ([7]; 250 g ai/ha): 50 | Barnyardgrass plant response rating ([7]; 500 g ai/ha): 100 | Rice, Water Seeded plant response rating ([8]; 32 g ai/ha): 0 | Rice, Water Seeded plant response rating ([8]; 64 g ai/ha): 0 | Rice, Water Seeded plant response rating ([8]; 125 g ai/ha): 0 | Rice, Water Seeded plant response rating ([8]; 250 g ai/ha): 10 | Rice, Water Seeded plant response rating ([8]; 500 g ai/ha): 60 | Junglerice plant response rating ([9]; 32 g ai/ha): 20 | Junglerice plant response rating ([9]; 64 g ai/ha): 30 | Junglerice plant response rating ([9]; 125 g ai/ha): 40 | Junglerice plant response rating ([9]; 250 g ai/ha): 50 | Junglerice plant response rating ([9]; 500 g ai/ha): 65 | Flatsedge, Rice plant response rating ([10]; 32 g ai/ha): 0 | Flatsedge, Rice plant response rating ([10]; 64 g ai/ha): 0 | Flatsedge, Rice plant response rating ([10]; 125 g ai/ha): 45 | Flatsedge, Rice plant response rating ([10]; 250 g ai/ha): 65 | Flatsedge, Rice plant response rating ([10]; 500 g ai/ha): 100 | Redstem plant response rating ([11]; 32 g ai/ha): 75 | Redstem plant response rating ([11]; 64 g ai/ha): 85 | Redstem plant response rating ([11]; 125 g ai/ha): 85 | Redstem plant response rating ([11]; 250 g ai/ha): 95 | Redstem plant response rating ([11]; 500 g ai/ha): 100 | Ducksalad plant response rating ([12]; 32 g ai/ha): 100 | Ducksalad plant response rating ([12]; 64 g ai/ha): 100 | Ducksalad plant response rating ([12]; 125 g ai/ha): 100 | Ducksalad plant response rating ([12]; 250 g ai/ha): 100 | Ducksalad plant response rating ([12]; 500 g ai/ha): 100 | Sprangletop, Brdd. plant response rating ([13]; 32 g ai/ha): 0 | Sprangletop, Brdd. plant response rating ([13]; 64 g ai/ha): 0 | Sprangletop, Brdd. plant response rating ([13]; 125 g ai/ha): 30 | Sprangletop, Brdd. plant response rating ([13]; 250 g ai/ha): 45 | Sprangletop, Brdd. plant response rating ([13]; 500 g ai/ha): 75 | Rice, Transplanted plant response rating ([14]; 32 g ai/ha): 0 | Rice, Transplanted plant response rating ([14]; 64 g ai/ha): 0 | Rice, Transplanted plant response rating ([14]; 125 g ai/ha): 0 | Rice, Transplanted plant response rating ([14]; 250 g ai/ha): 0 | Rice, Transplanted plant response rating ([14]; 500 g ai/ha): 30 | Watergrass, Late plant response rating ([15]; 32 g ai/ha): 0 | Watergrass, Late plant response rating ([15]; 64 g ai/ha): 20 | Watergrass, Late plant response rating ([15]; 125 g ai/ha): 20 | Watergrass, Late plant response rating ([15]; 250 g ai/ha): 20 | Watergrass, Late plant response rating ([15]; 500 g ai/ha): 20 | Watergrass, Early plant response rating ([16]; 32 g ai/ha): 0 | Watergrass, Early plant response rating ([16]; 64 g ai/ha): 0 | Watergrass, Early plant response rating ([16]; 125 g ai/ha): 0 | Watergrass, Early plant response rating ([16]; 250 g ai/ha): 0 | Watergrass, Early plant response rating ([16]; 500 g ai/ha): 0 | Sedge, Umbrella plant response rating ([17]; 32 g ai/ha): 70 | Sedge, Umbrella plant response rating ([17]; 64 g ai/ha): 80 | Sedge, Umbrella plant response rating ([17]; 125 g ai/ha): 95 | Sedge, Umbrella plant response rating ([17]; 250 g ai/ha): 100 | Sedge, Umbrella plant response rating ([17]; 500 g ai/ha): 100

Reference: patent publication US8802597B2, “Herbicidal pyrimidines” (E I du Pont de Nemours and Company, priority 2003, dated 2014)
